Source: patent publication US20260125346A1, “Isoquinolinone Derivatives and 4H-Quinolizinone Derivatives and Pharmaceutical Compositions Thereof for the Treatment of Disease” (BeOne Medicines I GmbH, priority 2023, published 2026)

How the values were obtained:
Assay type in all cases: cell-based
[1] = test system: PI3Kα H1047R mutated cell line T-47D; assay: Phospho-AKT (Ser473) Inhibition Assay (HTRF), T-47D; settings: for IC50: Homo sapiens, T47D, T-47D, 1 hour treatment, read-out: p-AKT Inhibition assay (S473) IC50 T-47D; for Selectivity: SK-BR-3/T-47D (p-AKT): p-AKT (S473) IC50 ratio
Method in brief: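 Cells seeded overnight in insulin-supplemented MEM, then treated 1 h with 11-point 1:3 compound dilutions (10 μM to 0.1 nM final, 0.1% DMSO). Lysates assayed for phospho-AKT Ser473 by HTRF; IC50 from 4-parameter logistic fit, normalised to DMSO (max) and 10 μM GDC0077 (min).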

[2] = test system: PI3Kα H1047R mutated cell line T-47D cells; assay: Cell Proliferation Assay (CellTiter-Glo), T-47D; settings: for IC50: Homo sapiens, T47D, 72 h, T-47D, 3 days treatment; for Selectivity: SK-BR-3/T-47D (cell proliferation): cell proliferation IC50 ratio
Method in brief: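 T-47D cells seeded overnight at 3×10^3/well, then exposed 3 days to 9-point 1:3 dilutions, final […] to 1 nM in 0.1% DMSO. CellTiter-Glo luminescence; relative IC50 from percent inhibition versus medium-only and 0.1% DMSO controls, 4-parameter logistic fit.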

WT cell line SK-BR-3 = assay: Cell Proliferation Assay (CellTiter-Glo), SK-BR-3; settings: Homo sapiens, 72 h; SK-BR-3, 3 days treatment
Method in brief: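 SK-BR-3 cells treated for 3 days with compound in a 9-point series, final concentrations 10 M to 1 nM in 0.1% DMSO. Viability read by CellTiter-Glo luminescence. Relative IC50 from percent inhibition versus medium-only and DMSO controls, four-parameter logistic fit.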

SMILES	IC50 [1] [nM]	Selectivity: SK-BR-3/T-47D (p-AKT) [1]	IC50 [2] [nM]	Selectivity: SK-BR-3/T-47D (cell proliferation) [2]	IC50 (WT cell line SK-BR-3) [nM]
Cc1cc(C(C)Nc2ccccc2C(=O)O)c2cc(-c3ccc(C4(O)CC4)cc3)n(C)c(=O)c2c1 (stereo not shown) [Example 62, 2-((1-(3-(4-(1-hydroxycyclopropyl)phenyl)-2,7-dimethyl-1-oxo-1,2-dihydroisoquinolin-5-yl)ethyl)amino)benzoic acid]	130	22.9	118	>85	> 10000
Cc1cc(C(C)Nc2ccccc2C(=O)O)c2cc(-c3ccc(F)cc3)n(CC#N)c(=O)c2c1 (stereo not shown) [Example 63, 2-((1-(2-(cyanomethyl)-3-(4-fluorophenyl)-7-methyl-1-oxo-1,2-dihydroisoquinolin-5-yl)ethyl)amino)benzoic acid]	57.3	83.3	205	>49	> 10000
Cc1cc([C@@H](C)Nc2ccccc2C(=O)O)c2cc(-c3ccc(F)cc3)n(CC#N)c(=O)c2c1 [Example 64, (R)-2-((1-(2-(cyanomethyl)-3-(4-fluorophenyl)-7-methyl-1-oxo-1,2-dihydroisoquinolin-5-yl)ethyl)amino)benzoic acid]	32.4	>308	70	>143	> 10000
Cc1cc(C(C)Nc2ccccc2C(=O)O)c2cc(-c3cnc(C(C)(C)O)nc3)n(C)c(=O)c2c1 (stereo not shown) [Example 66, 2-((1-(3-(2-(2-hydroxypropan-2-yl)pyrimidin-5-yl)-2,7-dimethyl-1-oxo-1,2-dihydroisoquinolin-5-yl)ethyl)amino)benzoic acid]	2800	>3.57	908	>11	> 10000
Cc1cc([C@@H](C)Nc2ccccc2C(=O)O)c2cc(-c3cnc(C(C)(C)O)nc3)n(C)c(=O)c2c1 [Example 67, (R)-2-((1-(3-(2-(2-hydroxypropan-2-yl)pyrimidin-5-yl)-2,7-dimethyl-1-oxo-1,2-dihydroisoquinolin-5-yl)ethyl)amino)benzoic acid]	1540	>6.51	279	>36	> 10000
Cc1cc(C(C)Nc2ccccc2C(=O)O)c2cc(-c3ccc(F)cc3)n(C3CCOC3)c(=O)c2c1 (stereo not shown) [Example 69, 2-((1-(3-(4-fluorophenyl)-7-methyl-1-oxo-2-(tetrahydrofuran-3-yl)-1,2-dihydroisoquinolin-5-yl)ethyl)amino)benzoic acid]	103	>97	1690	>5.9	> 10000
Cc1cc(C(C)Nc2ccccc2C(=O)O)c2cc(-c3ccc4c(c3)CN(C)C4=O)n(C)c(=O)c2c1 (stereo not shown) [Example 70, 2-((1-(2,7-dimethyl-3-(2-methyl-1-oxoisoindolin-5-yl)-1-oxo-1,2-dihydroisoquinolin-5-yl)ethyl)amino)benzoic acid]	1100	>9.11	245	>41	> 10000
Cc1cc(C(C)Nc2ccccc2C(=O)O)c2cc(-c3ccc(F)cc3)n(-c3nccs3)c(=O)c2c1 (stereo not shown) [Example 71, 2-((1-(3-(4-fluorophenyl)-7-methyl-1-oxo-2-(thiazol-2-yl)-1,2-dihydroisoquinolin-5-yl)ethyl)amino)benzoic acid]	102	55.0	267	>34	> 10000
Cc1cc(C(C)Nc2ccccc2C(=O)O)c2cc(-c3ccc(N4CCC(C)(O)CC4)nc3)n(C)c(=O)c2c1 (stereo not shown) [Example 72, 2-((1-(3-(6-(4-hydroxy-4-methylpiperidin-1-yl)pyridin-3-yl)-2,7-dimethyl-1-oxo-1,2-dihydroisoquinolin-5-yl)ethyl)amino)benzoic acid]	633	>15.79	175	>57	> 10000
Cc1cc(C(C)Nc2ccccc2C(=O)O)c2cc(-c3ccc(C4(O)CCOCC4)cc3)n(C)c(=O)c2c1 (stereo not shown) [Example 73, 2-((1-(3-(4-(4-hydroxytetrahydro-2H-pyran-4-yl)phenyl)-2,7-dimethyl-1-oxo-1,2-dihydroisoquinolin-5-yl)ethyl)amino)benzoic acid]	924	>10.82	171	>59	> 10000
COC1(c2ccc(-c3cc4c(C(C)Nc5ccccc5C(=O)O)cc(C)cc4c(=O)n3C)cc2)CCOCC1 (stereo not shown) [Example 74, 2-((1-(3-(4-(4-methoxytetrahydro-2H-pyran-4-yl)phenyl)-2,7-dimethyl-1-oxo-1,2-dihydroisoquinolin-5-yl)ethyl)amino)benzoic acid]	307	14.3	86.9	>115	> 10000
Cc1cc(C(C)Nc2ccccc2C(=O)O)c2cc(-c3ccc4c(c3)C(=O)N(C)C4)n(C)c(=O)c2c1 (stereo not shown) [Example 75, 2-((1-(2,7-dimethyl-3-(2-methyl-3-oxoisoindolin-5-yl)-1-oxo-1,2-dihydroisoquinolin-5-yl)ethyl)amino)benzoic acid]	547	>18.29	270	>37	> 10000
Cc1cc(C(C)Nc2ccccc2C(=O)O)c2cc(C3=CCN(c4ccccc4)C3)n(C)c(=O)c2c1 (stereo not shown) [Example 76, 2-((1-(2,7-dimethyl-1-oxo-3-(1-phenyl-2,5-dihydro-1H-pyrrol-3-yl)-1,2-dihydroisoquinolin-5-yl)ethyl)amino)benzoic acid]	123	43.5	674	>14.8	> 10000
Cc1cc(C(C)Nc2ccccc2C(=O)O)c2cc(-c3ccn(-c4ccccc4)c3)n(C)c(=O)c2c1 (stereo not shown) [Example 77, 2-((1-(2,7-dimethyl-1-oxo-3-(1-phenyl-1H-pyrrol-3-yl)-1,2-dihydroisoquinolin-5-yl)ethyl)amino)benzoic acid]	84.3	24.2	1400	>7.1	> 10000
Cc1cc(C(C)Nc2ccccc2C(=O)O)c2cc(-c3ccc(CN4CCOCC4)nc3)n(C)c(=O)c2c1 (stereo not shown) [Example 78, 2-((1-(2,7-dimethyl-3-(6-(morpholinomethyl)pyridin-3-yl)-1-oxo-1,2-dihydroisoquinolin-5-yl)ethyl)amino)benzoic acid]	1950	>5.12	329	>30	> 10000
Cc1cc(C(C)Nc2ccccc2C(=O)O)c2cc(-c3ccc(P(C)(C)=O)cc3)n(C)c(=O)c2c1 (stereo not shown) [Example 79, 2-((1-(3-(4-(dimethylphosphoryl)phenyl)-2,7-dimethyl-1-oxo-1,2-dihydroisoquinolin-5-yl)ethyl)amino)benzoic acid]	> 10000	–	> 10000	–	> 10000
Cc1cc(C(C)Nc2ccccc2C(=O)O)c2cc(C#Cc3cnn(C)c3)n(C)c(=O)c2c1 (stereo not shown) [Example 80, 2-((1-(2,7-dimethyl-3-((1-methyl-1H-pyrazol-4-yl)ethynyl)-1-oxo-1,2-dihydroisoquinolin-5-yl)ethyl)amino)benzoic acid]	69.8	44.1	254	>39.4	> 10000
CCn1c(-c2ccc(F)cc2)cc2c(C(C)Nc3ccc(Cl)nc3C(=O)O)cc(C)cc2c1=O (stereo not shown) [Example 81, 6-chloro-3-((1-(2-ethyl-3-(4-fluorophenyl)-7-methyl-1-oxo-1,2-dihydroisoquinolin-5-yl)ethyl)amino)picolinic acid]	40.9	45.6	770	>13	> 10000
Cc1cc(C(C)Nc2ccccc2S(C)(=O)=O)c2cc(-c3ccccc3)n(C)c(=O)c2c1 (stereo not shown) [Example 82, 2,7-dimethyl-5-(1-((2-(methylsulfonyl)phenyl)amino)ethyl)-3-phenylisoquinolin-1(2H)-one]	155	13.0	> 10000	–	> 10000
Cc1cc(C(C)Nc2ccccc2C(=O)O)c2cc(-c3ccc(N4CCCC4)cc3)n(C)c(=O)c2c1 (stereo not shown) [Example 84, 2-((1-(2,7-dimethyl-1-oxo-3-(4-(pyrrolidin-1-yl)phenyl)-1,2-dihydroisoquinolin-5-yl)ethyl)amino)benzoic acid]	60	52.0	465	>22	> 10000
